Marks after values point to notes of the source that are not given here.
How the values were obtained:
Alternaria solani = assay: Test B: tomato early blight, preventive spray on tomato seedlings, visual disease rating; conditions: for Test B rating (disease control) / Test B rating (% disease control): tomato early blight, 100 = 100% disease control; for Test B rating (disease control): 0 = no disease control relative to the controls; for Test B rating (% disease control): preventive spray, rating without asterisk; for pest or weed control at 200 µg/mL: Alternaria solani, in Solanum lycopersicum, read-out: Test B rating (disease control)
Description: General protocol for preparing test suspensions for Tests A-I: the test compounds were first dissolved in acetone in an amount equal to 3% of the final volume and then suspended at the desired concentration (in ppm) in acetone and purified water (50/50 mix by volume) containing 250 ppm of the surfactant Trem® 014 (polyhydric alcohol esters). The resulting test suspensions were then used in Tests A-I. Each test was conducted in triplicate, and the results were averaged. Spraying a 200 ppm test suspension to the point of run-off on the test plants was the equivalent of a rate of about 800 g/ha. Unless otherwise indicated, the rating values indicate a 200 ppm test suspension was used. (An asterisk “*” next to the rating value indicates a 40 ppm test suspension was used.)
The test suspension was sprayed to the point of run-off on tomato seedlings. The following day the seedlings were inoculated with a spore suspension of Alternaria solani (the causal agent of tomato early blight) and incubated in a saturated atmosphere at 27° C. for 48 h, and then moved to a growth chamber at 20° C. for 5 days, after which time visual disease ratings were made.

[1] = test system: Puccinia recondita f. sp. tritici; assay: Test G: wheat leaf rust, spray after inoculation (curative) on wheat seedlings, visual disease rating; assay type: in vivo; conditions: 100 = 100% disease control; for Test G rating (disease control) / pest or weed control at 200 µg/mL: sprayed after inoculation, 0 = no disease control; for Test G rating (% disease control): spray after inoculation, rating without asterisk
From the text: (§1) A hyphen (-) indicates no test results.

[2] = test system: Puccinia recondita f. sp. tritici; assay: Test H: wheat leaf rust, preventive spray on wheat seedlings, visual disease rating; conditions: for Test H rating (disease control) / Test H rating (% disease control): wheat leaf rust; for Test H rating (disease control): sprayed the day before inoculation; for Test H rating (disease control) / Test H rating (% disease control) / pest or weed control at 200 µg/mL: 100 = 100% disease control; for Test H rating (disease control) / pest or weed control at 200 µg/mL: 0 = no disease control; for Test H rating (% disease control): preventive spray, rating without asterisk; for pest or weed control at 200 µg/mL: read-out: Test H rating (disease control), wheat leaf rust, sprayed the day before inoculation; for pest or weed control at 40 µg/mL: read-out: Test H rating (% disease control), marked *, wheat leaf rust, preventive spray, rating marked with asterisk (*), other test suspension concentration than unmarked ratings
Botrytis cinerea = assay: Test A: tomato Botrytis, preventive spray on tomato seedlings, visual disease rating; conditions: for Test A rating (disease control) / Test A rating (% disease control): tomato Botrytis; for Test A rating (disease control) / Test A rating (% disease control) / pest or weed control at 200 µg/mL: 100 = 100% disease control; for Test A rating (disease control) / pest or weed control at 200 µg/mL: 0 = no disease control relative to the controls; for Test A rating (% disease control): preventive spray, 0 = no control relative to controls, rating without asterisk; for pest or weed control at 200 µg/mL / pest or weed control at 40 µg/mL: Botrytis cinerea, in Solanum lycopersicum; for pest or weed control at 200 µg/mL: read-out: Test A rating (disease control), tomato Botrytis; for pest or weed control at 40 µg/mL: read-out: Test A rating (% disease control), marked *, tomato Botrytis, preventive spray, rating marked with asterisk (*), other test suspension concentration than unmarked ratings
[3] = test system: Blumeria graminis f. sp. tritici; assay: Test I: wheat powdery mildew, preventive spray on wheat seedlings, visual disease rating; conditions: for Test I rating (disease control) / Test I rating (% disease control): wheat powdery mildew; for Test I rating (disease control) / Test I rating (% disease control) / pest or weed control at 200 µg/mL: 100 = 100% disease control; for Test I rating (disease control) / pest or weed control at 200 µg/mL: 0 = no disease control relative to the controls; for Test I rating (% disease control): preventive spray, rating without asterisk; for pest or weed control at 200 µg/mL / pest or weed control at 40 µg/mL: Blumeria graminis, in Triticum aestivum; for pest or weed control at 200 µg/mL: read-out: Test I rating (disease control), wheat powdery mildew; for pest or weed control at 40 µg/mL: read-out: Test I rating (% disease control), marked *, wheat powdery mildew, preventive spray, rating marked with asterisk (*), other test suspension concentration than unmarked ratings
Septoria tritici = assay: Test F: wheat leaf blotch, preventive spray on wheat seedlings, visual disease rating; assay type: in vivo; parameters: Test F rating (disease control), value marked *: concentration or dose not given beside the values; pest or weed control: dose or concentration left out as unconfirmed; conditions: for Test F rating (disease control) / Test F rating (% disease control) / pest or weed control at 200 µg/mL: 100 = 100% disease control; for Test F rating (disease control) / pest or weed control at 200 µg/mL: 0 = no disease control relative to the controls; for Test F rating (disease control), value marked * / pest or weed control: rating marked with asterisk (*); for Test F rating (disease control), value marked *: other test condition, not explained in the text shown; for Test F rating (% disease control) / pest or weed control: preventive spray; for Test F rating (% disease control): rating without asterisk; for pest or weed control at 200 µg/mL / pest or weed control: Zymoseptoria tritici; for pest or weed control: other test suspension concentration than unmarked ratings
From the text: as §1

Septoria nodorum = assay: Test E: Septoria glume blotch, preventive spray on wheat seedlings, visual disease rating; conditions: for Test E rating (disease control): Septoria glume blotch; for Test E rating (disease control) / Test E rating (% disease control) / pest or weed control at 200 µg/mL: 100 = 100% disease control; for Test E rating (disease control) / pest or weed control at 200 µg/mL: 0 = no disease control relative to the controls; for Test E rating (% disease control) / Test E rating (% disease control), marked *: Septoria glume blotch on wheat, preventive spray; for Test E rating (% disease control): rating without asterisk; for pest or weed control at 200 µg/mL: Parastagonospora nodorum, in Triticum aestivum, read-out: Test E rating (disease control), Septoria glume blotch; for Test E rating (% disease control), marked *: rating marked with asterisk (*), other test suspension concentration than unmarked ratings

Compound	Test B rating (disease control) (Alternaria solani) [%]	Test G rating (disease control) [1] [%]	Test H rating (disease control) [2] [%]	Test A rating (disease control) (Botrytis cinerea) [%]	Test I rating (disease control) [3] [%]	Test E rating (disease control) (Septoria nodorum) [%]	Test B rating (% disease control) (Alternaria solani) [%]	Test G rating (% disease control) [1] [%]	Test H rating (% disease control) [2] [%]	Test I rating (% disease control) [3] [%]	Test E rating (% disease control) (Septoria nodorum) [%]	also measured
COc1ccc(-c2c(C)nn(C)c2Oc2c(F)cc(C#N)cc2F)c(F)c1 [compound 14]	100	37	100	99	99	99						Test F rating (disease control) (Septoria tritici): 100%
Cc1nn(C)c(C(O)c2c(F)cc(F)cc2F)c1-c1ccc(F)cc1Cl (racemic) [compound 178]	33	98	100	100	74	0						
COc1cc(F)c(-c2c(C)nn(C)c2Nc2ccc(C#N)cc2Cl)c(F)c1 [compound 32]	97	11	98	99	97	82						Test F rating (disease control) (Septoria tritici): 100%
Cc1nn(C)c(Nc2ccc(Cl)cc2Cl)c1-c1ccc(F)cc1Cl [compound 88]	95	41	100	100	100	51						Test F rating (disease control), value marked * (Septoria tritici): 100* %
COc1ccc(Nc2c(-c3ccc(F)cc3F)c(C)nn2C)c(Cl)c1 [compound 66]	37	0	91	99	100	0						Test F rating (disease control) (Septoria tritici): 100%
COc1cc(F)c(Nc2c(-c3c(F)cccc3F)c(C)nn2C)c(F)c1 [compound 72]	99	0	97	100	98	0						Test F rating (disease control) (Septoria tritici): 100%
Cc1nn(C)c(Nc2c(F)cc(F)cc2Br)c1-c1ccc(Cl)cc1F [compound 229]							99	9	97	98	64	Test A rating (% disease control) (Botrytis cinerea): 99%; Test F rating (% disease control) (Septoria tritici): 100%
COc1ccc(-c2c(C)nn(C)c2Nc2c(F)cc(F)cc2Br)c(Cl)c1 [compound 221]							100	73	99	100	97	Test A rating (% disease control) (Botrytis cinerea): 100%; Test F rating (% disease control) (Septoria tritici): 100%
COc1cc(F)c(Nc2c(-c3ccccc3F)c(C)nn2C)c(F)c1 [compound 54]	100	27	94	97	99	67						Test F rating (disease control) (Septoria tritici): 99%
Cc1nn(C)c(Oc2ccc(C#N)cc2F)c1-c1ccc(F)cc1Cl [Compound 33, 4-[[4-(2-chloro-4-fluorophenyl)-1,3-dimethyl-1H-pyrazol-5-yl]oxy]-3-fluorobenzonitrile]												pest or weed control at 200 µg/mL (Alternaria solani): 100%; pest or weed control at 200 µg/mL [1]: 99%; pest or weed control at 200 µg/mL [2]: 100%; pest or weed control at 200 µg/mL (Botrytis cinerea): 100%; pest or weed control at 200 µg/mL [3]: 99%; pest or weed control at 200 µg/mL (Septoria tritici): 100%; pest or weed control at 200 µg/mL (Septoria nodorum): 98%
Cc1nn(C)c(C(O)c2ccc(F)cc2F)c1-c1ccc(F)cc1Cl (stereo not drawn) [Compound 122, 4-(2-chloro-4-fluorophenyl)-α-(2,4-difluorophenyl)-1,3-dimethyl-1H-pyrazole-5-methanol]												pest or weed control at 200 µg/mL (Alternaria solani): 99%; pest or weed control at 200 µg/mL [1]: 96%; pest or weed control at 200 µg/mL [2]: 100%; pest or weed control at 200 µg/mL (Botrytis cinerea): 100%; pest or weed control at 200 µg/mL [3]: 99%; pest or weed control at 200 µg/mL (Septoria tritici): 100%; pest or weed control at 200 µg/mL (Septoria nodorum): 92%
Cc1nn(C)c(C(O)c2ccc(Cl)cc2F)c1-c1ccc(F)cc1Cl (racemic) [compound 177]	0	0	0	99	48	0						
COc1ccc(-c2c(C)nn(C)c2C(O)c2c(F)cc(Cl)cc2F)c(Cl)c1 (racemic) [compound 224]							100	54	100	94	89	Test F rating (% disease control) (Septoria tritici): 100%
COc1ccc(-c2c(C)nn(C)c2Nc2c(Cl)cc(F)cc2Cl)c(F)c1 [compound 194]							93	0	95	63	87	Test F rating (% disease control) (Septoria tritici): 100%
CCOc1ccc(-c2c(C)nn(C)c2Nc2ccc(F)cc2F)c(F)c1 [Compound 193]							58	0	27	92	0	Test F rating (% disease control) (Septoria tritici): 100%
Cc1nn(C)c(C(O)c2ccc(C#N)cc2F)c1-c1ccc(F)cc1Cl (racemic) [compound 179]							16	9	99	0	0	Test A rating (% disease control) (Botrytis cinerea): 96%
COc1ccc(-c2c(C)nn(C)c2Nc2c(C)cccc2F)c(F)c1 [Compound 259, 4-(2-fluoro-4-methoxyphenyl)-N-(2-fluoro-6-methylphenyl)-1,3-dimethyl-1H-pyrazol-5-amine]												pest or weed control at 40 µg/mL [2]: 82%; pest or weed control at 40 µg/mL (Botrytis cinerea): 100%; pest or weed control at 40 µg/mL [3]: 90%; pest or weed control (Septoria tritici): 100%; Test E rating (% disease control), marked * (Septoria nodorum): 0* %
COc1ccc(Oc2c(-c3ccc(F)cc3Cl)c(C)nn2C)c(F)c1 [compound 5]	100		100	98	99	97						Test F rating (disease control), value marked * (Septoria tritici): 97* %
COc1ccc(-c2c(C)nn(C)c2Nc2c(C)cccc2Br)c(F)c1 [Compound 258, N-(2-bromo-6-methylphenyl)-4-(2-fluoro-4-methoxyphenyl)-1,3-dimethyl-1H-pyrazol-5-amine]												pest or weed control at 40 µg/mL [2]: 9%; pest or weed control at 40 µg/mL (Botrytis cinerea): 100%; pest or weed control at 40 µg/mL [3]: 0%; pest or weed control (Septoria tritici): 100%; Test E rating (% disease control), marked * (Septoria nodorum): 0* %
Cc1nn(C)c(C(O)c2ccc(F)cc2Br)c1-c1ccc(F)cc1Cl (stereo not drawn) [Compound 153, α-(2-bromo-4-fluorophenyl)-4-(2-chloro-4-fluorophenyl)-1,3-dimethyl-1H-pyrazole-5-methanol]												pest or weed control at 200 µg/mL (Alternaria solani): 0%; pest or weed control at 200 µg/mL [1]: 0%; pest or weed control at 200 µg/mL [2]: 96%; pest or weed control at 200 µg/mL [3]: 0%; pest or weed control at 200 µg/mL (Septoria tritici): 100%; pest or weed control at 200 µg/mL (Septoria nodorum): 0%

From patent US20170150719A1, “FUNGICIDAL PYRAZOLES AND THEIR MIXTURES” (E I DU PONT DE NEMOURS AND COMPANY, priority 2010, published 2017)
